Measured values published in patent US6794491B1, “Polypeptides, their production and use” (Takeda Chemical Industries, Ltd., priority 1995, dated 2004).
Where no end group is shown, it is not given here.

Legend:
[1] = blood pressure after injection into the area postrema of medula oblongata; format: in vivo, male Wistar rats; details: 10 nmol into the area postrema of medula oblongata, conscious rats
Description: The inventors explored the influence of injection of 19P2-L31 into the area postrema of medula oblongata on blood pressure. Mature male Wistar rats (body weights at operation: ca 300 g) were anesthetized with pentobarbital 50 mg/kg i.p. and each animal was immobilized in a rat brain stereotaxic apparatus. The incisor bar was lowered by 3.3 mm from the interaural line. The skull was exposed, and using a dental drill a hole was made on the skull for implantation of a guide cannula. In addition, anchor screws were buried in two positions around the drilled hole. A stainless-steel guide cannula, AG-12 (0.4 mm inside dia., 0.5 mm out. dia., EICOM), was inserted in such a manner that its leading end would be situated in the upper part of the area postrema. […] With reference to the atlas of Paxinos and Watson (1986), the stereotaxic coordinates were AP: −6.0 mm (from interaural line), L: 0.0 mm, and H: +1.5 mm (from interaural line). […]
After waiting overnight postoperatively, the polyethylene tube was connected to a transducer (Spectramed) and the blood pressure was measured. After blood pressure readings became steady, the cap nut and dummy cannula were removed from the rat skull and, instead, a stainless steel microinjection cannula (0.17 mm in. dia., 0.35 mm out. dia., EICOM) connected to a Teflon tube (50 cm long, 0.1 mm in. dia., 0.4 mm out. dia., EICOM) was inserted. […]

[2] = reserpine-induced hypothermia in mice; format: in vivo, ICR male mice; details: lateral ventricle
Description: The mature ICR male mice (weight at operation: about 35 g) were anesthetized by administration of pentobarbital (50 mg/kg, i.p.), and then fixed on stereotaxic apparatus. The skull of a said mouse was exposed, then a hole was made by dental drill for guide-cannulization into the left lateral ventricle. The tip of a stainless-steel guide-cannula (24 G, length: 5 mm) for drug injection to lateral ventricle, was inserted to the position of AP: +0.6 mm (from bregma), L: left 1 mm and H: −1 mm (from dura matter). The guide-cannula was fixed onto the skull with adhesive. The cannula-implanted mice were housed as described above and were used for measurements of body temperature at least 3 days after the operation. Reserpine (Apoplon; Daiichi Pharmaceutical) was administered to mice at a dose of 3 mg/kg, s.c., and after 15 hours, each mouse was placed in a cage for the measurement. Then a stainless-steel micro-injection cannula (30 G, length: 6 mm) was inserted into the guide-cannula. The micro-injection cannula was connected to a microsyringe pump with Teflon tube, and injection of PBS or a peptide dissolved in PBS lasted for 2 minutes at a speed of 1 μl/min. The micro-injection cannula was withdrawn after over a period of 2 minutes from end of injection, than the temperature in rectum was measured.
The results are expressed as a mean±S.E.M. Student's t test was used to determine the significance of differences between values from the mice treated with a peptide and the PBS-injected controls. For the purpose of this analysis, p<0.05 was assumed to be the minimal level of significance.

[3] = target: T1, UHR-1 expressed in CHO cells (CHO-UHR1) (Rattus norvegicus, UniProt Q64121, L289V); assay: release of arachidonic acid metabolites from CHO-UHR1 cells; format: cell-based; details: CHO cells expressing rat homolog UHR1; duplicate
T1 construct: expressed in transfected cells; host or cells: CHO dhfr- cells transfected with pAKKO-UHR-1
T1 sequence (Q64121 1-370 L289V): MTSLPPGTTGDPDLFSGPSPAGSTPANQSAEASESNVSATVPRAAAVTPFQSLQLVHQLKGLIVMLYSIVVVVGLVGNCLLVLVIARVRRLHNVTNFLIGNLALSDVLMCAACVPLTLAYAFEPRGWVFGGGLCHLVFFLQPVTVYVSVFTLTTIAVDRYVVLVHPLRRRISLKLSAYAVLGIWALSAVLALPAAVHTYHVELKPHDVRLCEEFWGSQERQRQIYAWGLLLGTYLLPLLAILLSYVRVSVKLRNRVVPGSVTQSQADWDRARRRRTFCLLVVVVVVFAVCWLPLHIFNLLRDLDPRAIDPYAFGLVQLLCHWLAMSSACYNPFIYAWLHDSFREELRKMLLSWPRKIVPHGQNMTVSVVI
Description: The full-length receptor protein-expressed CHO cells and mock CHO cells were seeded in a 24-well plate, 0.5×10^5 cells/well, and cultured for 24 hours. Then, [^3H] arachidonic acid was added at a final concentration of 0.25 μCi/well. Sixteen (16) hours after addition of [^3H] arachidonic acid, the cells were rinsed with 0.05% BSA-HBSS and the above-mentioned crude peptide fraction was added, 400 μl/well. The mixture was incubated at 37° C. for 30 minutes and a 300 μl portion of the reaction mixture (400 μl) was added to 4 ml of a scintillator and the amount of [^3H] arachidonic acid metabolite released into the reaction mixture was determined with a scintillation counter.
Same as described in Example 11, the release activity of arachidonic acid metabolite was measured on CHO-19P2-9 and CHO-UHR1 and mock CHO.

Ser-Arg-Ala-His-Gln-His-Ser-Met-Glu-Ile-Arg-Thr-Pro-Asp-Ile-Asn-Pro-Ala-Trp-Tyr-Ala-Gly-Arg-Gly-Ile-Arg-Pro-Val-Gly-Arg-Phe-NH2 (SRAHQHSMEIRTPDINPAWYAGRGIRPVGRF-NH2) [19P2-L31, synthetic ligand polypeptide]
blood pressure [1]: caused an elevation of blood pressure
temperature variation versus PBS-injected control ([2]; 1 nmol, reserpine-treated mice): no statistically significant difference
body temperature lowered by reserpine ([2]; 10 nmol, mice, 15 hours after reserpine 3 mg/kg s.c., versus PBS): increased significantly
time of maximum increase of body temperature after administration ([2]; 10 nmol, reserpine-treated mice): 45 min
release activity of arachidonic acid metabolite [3]: detected same as CHO-19P2-9
